Assay results from patent US10668043B2, “Potentiated antimicrobial agents” (priority 2014, dated 2020).
Values after ≈ are worked out from the molar mass of the structure shown.

Columns and labels:
[1] = system: Pasteurella; test: etest on agar containing the booster; assay type: cell-based
Text: (§1) The corresponding tests are made based on the usual MIC test: the etest® (Biomerieux) strip is deposited onto the surface of a seeded agar medium in which the booster has been incorporated.
(§2) The control corresponds to the test made without cineol. A control is made in each solvent tested: distilled water, Tween/water and DMSO. • ED control=antibiotic alone in distilled water • DMSO control=antibiotic alone in DMSO • TE control=antibiotic alone in Tween® 80
Other e-tests are also made on Pasteurella.

[2] = system: Staphylococcus; test: etest on agar containing the booster; assay type: cell-based; set-up: MIC (e-test): unit not given beside the values
Text: as §1, with “incorporated. This test enables solvent effect risks, that is a possible interaction with the solvent used in vitro, to be minimised.” for “incorporated.”
as §2

[3] = system: E. coli; test: etest on agar containing the booster; assay type: cell-based; set-up: MIC (e-test): unit not given beside the values
Text: as §1, with “incorporated. This test enables solvent effect risks, that is a possible interaction with the solvent used in vitro, to be minimised.” for “incorporated.”
as §2

[4] = system: Staphylococcus; test: Double dilution test; assay type: cell-based; details: strain 8148
Text: (§3) The double dilution test is a MIC measurement test made on successive dilutions of the 2 products of the composition. […] The summary table expresses for each strain and for each dilution of the booster the measured antibiotic MIC.
(§4) The code enabling the results to be interpreted is the following one: no sign “^+” if the MIC is equivalent with and without booster, a sign “^+” if the value is lower with booster.

[5] = system: E. coli; test: Double dilution test; assay type: cell-based
Text: as §3, §4

[6] = system: MSSA 8238; details: Balb/c, mouse, in vivo
Experimental: To Balb/c mice, is injected (Sc.) the antimicrobial product or the antimicrobial+booster mixture.
At different post-injection times, the mice are euthanised, and blood sampled, heparined and centrifuged to extract plasma thereof
Antibacterial effects are measured after 24 h incubation. The successive dilutions enable the antimicrobial effect to be determined and compared with the MIC. The efficient concentration/MIC ratio is thus determined.

MIC (e-test) ([1]; strain 14012, 5 mg cineol DMSO): 0.094 µg/mL (≈ 0.257 µM)
MIC (e-test) ([1]; strain 14012, 5 mg cineol TE): 0.094 µg/mL (≈ 0.257 µM)
MIC (e-test) ([1]; strain 14012, 5 mg cineol water): 0.094 µg/mL (≈ 0.257 µM)
MIC (e-test) ([1]; strain 14012, 10 mg cineol TE): 0.094 µg/mL (≈ 0.257 µM)
MIC (e-test) ([1]; strain 14012, 10 mg cineol water): 0.094 µg/mL (≈ 0.257 µM)
MIC (e-test) ([1]; strain 14012, DMSO control): 0.094 µg/mL (≈ 0.257 µM)
MIC (e-test) ([1]; strain 14012, ED control): 0.032 µg/mL (≈ 0.0876 µM)
MIC (e-test) ([1]; strain 14012, TE control): 0.19 µg/mL (≈ 0.52 µM)
MIC (e-test) ([1]; strain 14013, 5 mg cineol DMSO): 0.25 µg/mL (≈ 0.684 µM)
MIC (e-test) ([1]; strain 14013, 5 mg cineol TE): 0.25 µg/mL (≈ 0.684 µM)
MIC (e-test) ([1]; strain 14013, 5 mg cineol water): 0.25 µg/mL (≈ 0.684 µM)
MIC (e-test) ([1]; strain 14013, 10 mg cineol DMSO): 0.25 µg/mL (≈ 0.684 µM)
MIC (e-test) ([1]; strain 14013, 10 mg cineol water): 0.19 µg/mL (≈ 0.52 µM)
MIC (e-test) ([1]; strain 14013, DMSO control): 0.19 µg/mL (≈ 0.52 µM)
MIC (e-test) ([1]; strain 14013, ED control): 0.19 µg/mL (≈ 0.52 µM)
MIC (e-test) ([1]; strain 14013, TE control): 0.25 µg/mL (≈ 0.684 µM)
MIC (e-test) ([1]; strain 14014, 5 mg cineol DMSO): 0.094 µg/mL (≈ 0.257 µM)
MIC (e-test) ([1]; strain 14014, 5 mg cineol TE): 0.094 µg/mL (≈ 0.257 µM)
MIC (e-test) ([1]; strain 14014, 5 mg cineol water): 0.19 µg/mL (≈ 0.52 µM)
MIC (e-test) ([1]; strain 14014, 10 mg cineol TE): 0.094 µg/mL (≈ 0.257 µM)
MIC (e-test) ([1]; strain 14014, ED Control): 0.094 µg/mL (≈ 0.257 µM)
MIC (e-test) ([1]; strain 14014, TE control): 0.094 µg/mL (≈ 0.257 µM)
MIC (e-test) ([2]; strain 8143, Cineol 4 mg/L, DMSO): 1.5^+
MIC (e-test) ([2]; strain 8143, Cineol 16 mg/L, DMSO): 1.5^+
MIC (e-test) ([2]; strain 8143, ED control, no cineol): 2^+
MIC (e-test) ([2]; strain 8146, Cineol 4 mg/L, DMSO): 0.38^+
MIC (e-test) ([2]; strain 8146, Cineol 16 mg/L, DMSO): 0.19^+
MIC (e-test) ([2]; strain 8146, ED control, no cineol): 0.5^+
MIC (e-test) ([2]; strain 8149, Cineol 4 mg/L, DMSO): 0.5^+
MIC (e-test) ([2]; strain 8149, Cineol 16 mg/L, DMSO): 0.38^+
MIC (e-test) ([2]; strain 8149, ED control, no cineol): 1^+
MIC (e-test) ([2]; strain 8240, Cineol 4 mg/L, DMSO): 12^+
MIC (e-test) ([2]; strain 8240, Cineol 16 mg/L, DMSO): 16^+
MIC (e-test) ([2]; strain 8240, ED control, no cineol): 24^+
MIC (e-test) ([2]; strain 8241, Cineol 4 mg/L, DMSO): 8^+
MIC (e-test) ([2]; strain 8241, Cineol 16 mg/L, DMSO): 12^+
MIC (e-test) ([2]; strain 8241, ED control, no cineol): 32^+
MIC (e-test) ([2]; strain 10168, Cineol 4 mg/L, DMSO): 1^+
MIC (e-test) ([2]; strain 10168, Cineol 16 mg/L, DMSO): 1^+
MIC (e-test) ([2]; strain 10168, ED control, no cineol): 2^+
MIC (e-test) ([3]; strain 8141, Cineol 4 mg/L, DMSO): 6^+
MIC (e-test) ([3]; strain 8141, Cineol 16 mg/L, DMSO): 0.1^+
MIC (e-test) ([3]; strain 8141, ED control, no cineol): 8^+
MIC (e-test) ([3]; strain 8150, Cineol 4 mg/L, DMSO): 6^+
MIC (e-test) ([3]; strain 8150, Cineol 16 mg/L, DMSO): 0.1^+
MIC (e-test) ([3]; strain 8150, ED control, no cineol): 8^+
MIC (e-test) ([3]; strain 8156, Cineol 4 mg/L, DMSO): 8^+
MIC (e-test) ([3]; strain 8156, Cineol 16 mg/L, DMSO): 8^+
MIC (e-test) ([3]; strain 8156, ED control, no cineol): 12^+
MIC (e-test) ([3]; strain ATCC25922, Cineol 4 mg/L, DMSO): 12^+
MIC (e-test) ([3]; strain ATCC25922, Cineol 16 mg/L, DMSO): 12^+
MIC (e-test) ([3]; strain ATCC25922, ED control, no cineol): 16^+
amoxicillin MIC ([4]; Amox, cineol 0): 8 µg/mL
amoxicillin MIC ([4]; cineol 10 mg/L): 0.5^+
amoxicillin MIC ([4]; cineol 20 mg/L): 8 µg/mL
amoxicillin MIC ([4]; cineol 37.5 mg/L): 8 µg/mL
amoxicillin MIC ([4]; cineol 75 mg/L): 8 µg/mL
amoxicillin MIC ([4]; cineol 150 mg/L): 8 µg/mL
amoxicillin MIC ([4]; cineol 300 mg/L): 8 µg/mL
amoxicillin MIC ([4]; cineol 600 mg/L): 8 µg/mL
amoxicillin MIC ([4]; cineol 2,500 mg/L): 8 µg/mL
amoxicillin MIC ([4]; cineol 5,000 mg/L): 8 µg/mL
amoxicillin MIC ([4]; cineol 10,000 mg/L): 4 µg/mL
amoxicillin MIC ([4]; cineol 25,000 mg/L): 16^
amoxicillin MIC ([4]; cineol 50,000 mg/L): 0.25^+
amoxicillin MIC ([4]; cineol […]): 8 µg/mL
amoxicillin MIC ([5]; strain 8137, Amox, cineol 0): 8 µg/mL
amoxicillin MIC ([5]; strain 8137, cineol 10 mg/L): 0.5^+
amoxicillin MIC ([5]; strain 8137, cineol 20 mg/L): 8 µg/mL
amoxicillin MIC ([5]; strain 8137, cineol 37.5 mg/L): 8 µg/mL
amoxicillin MIC ([5]; strain 8137, cineol 75 mg/L): 8 µg/mL
amoxicillin MIC ([5]; strain 8137, cineol 150 mg/L): 8 µg/mL
amoxicillin MIC ([5]; strain 8137, cineol 300 mg/L): 8 µg/mL
amoxicillin MIC ([5]; strain 8137, cineol 600 mg/L): 8 µg/mL
amoxicillin MIC ([5]; strain 8137, cineol 2,500 mg/L): 8 µg/mL
amoxicillin MIC ([5]; strain 8137, cineol 5,000 mg/L): 8 µg/mL
amoxicillin MIC ([5]; strain 8137, cineol 25,000 mg/L): 4^+
amoxicillin MIC ([5]; strain 8137, cineol 50,000 mg/L): 0.25^+
amoxicillin MIC ([5]; strain 8137, cineol […]): 8 µg/mL
amoxicillin MIC ([5]; strain 8151, Amox, cineol 0): 8 µg/mL
amoxicillin MIC ([5]; strain 8151, cineol 10 mg/L): 0.5^+
amoxicillin MIC ([5]; strain 8151, cineol 20 mg/L): 8 µg/mL
amoxicillin MIC ([5]; strain 8151, cineol 37.5 mg/L): 8 µg/mL
amoxicillin MIC ([5]; strain 8151, cineol 75 mg/L): 8 µg/mL
amoxicillin MIC ([5]; strain 8151, cineol 150 mg/L): 8 µg/mL
amoxicillin MIC ([5]; strain 8151, cineol 300 mg/L): 8 µg/mL
amoxicillin MIC ([5]; strain 8151, cineol 600 mg/L): 8 µg/mL
amoxicillin MIC ([5]; strain 8151, cineol 2,500 mg/L): 8 µg/mL
amoxicillin MIC ([5]; strain 8151, cineol 5,000 mg/L): 8 µg/mL
amoxicillin MIC ([5]; strain 8151, cineol 10,000 mg/L): 4^+
amoxicillin MIC ([5]; strain 8151, cineol 25,000 mg/L): 4^+
amoxicillin MIC ([5]; strain 8151, cineol 50,000 mg/L): 0.25^+
amoxicillin MIC ([5]; strain 8151, cineol […]): 8 µg/mL
amoxicillin MIC ([5]; strain 8155, Amox, cineol 0): 8 µg/mL
amoxicillin MIC ([5]; strain 8155, cineol 10 mg/L): 0.5^+
amoxicillin MIC ([5]; strain 8155, cineol 20 mg/L): 8 µg/mL
amoxicillin MIC ([5]; strain 8155, cineol 37.5 mg/L): 8 µg/mL
amoxicillin MIC ([5]; strain 8155, cineol 75 mg/L): 8 µg/mL
amoxicillin MIC ([5]; strain 8155, cineol 150 mg/L): 8 µg/mL
amoxicillin MIC ([5]; strain 8155, cineol 300 mg/L): 8 µg/mL
amoxicillin MIC ([5]; strain 8155, cineol 600 mg/L): 8 µg/mL
amoxicillin MIC ([5]; strain 8155, cineol 2,500 mg/L): 8 µg/mL
amoxicillin MIC ([5]; strain 8155, cineol 5,000 mg/L): 8 µg/mL
amoxicillin MIC ([5]; strain 8155, cineol 10,000 mg/L): 8 µg/mL
amoxicillin MIC ([5]; strain 8155, cineol 25,000 mg/L): 4^
amoxicillin MIC ([5]; strain 8155, cineol 50,000 mg/L): 0.25^+
amoxicillin MIC ([5]; strain 8155, cineol […]): 8 µg/mL
amoxicillin MIC ([5]; strain 8156, Amox, cineol 0): 8 µg/mL
amoxicillin MIC ([5]; strain 8156, cineol 10 mg/L): 0.5^+
amoxicillin MIC ([5]; strain 8156, cineol 20 mg/L): 8 µg/mL
amoxicillin MIC ([5]; strain 8156, cineol 37.5 mg/L): 8 µg/mL
amoxicillin MIC ([5]; strain 8156, cineol 75 mg/L): 8 µg/mL
amoxicillin MIC ([5]; strain 8156, cineol 150 mg/L): 8 µg/mL
amoxicillin MIC ([5]; strain 8156, cineol 300 mg/L): 8 µg/mL
amoxicillin MIC ([5]; strain 8156, cineol 600 mg/L): 8 µg/mL
amoxicillin MIC ([5]; strain 8156, cineol 2,500 mg/L): 16 µg/mL
amoxicillin MIC ([5]; strain 8156, cineol 5,000 mg/L): 8 µg/mL
amoxicillin MIC ([5]; strain 8156, cineol 10,000 mg/L): 8 µg/mL
amoxicillin MIC ([5]; strain 8156, cineol 25,000 mg/L): 8^
amoxicillin MIC ([5]; strain 8156, cineol 50,000 mg/L): 4^+
amoxicillin MIC ([5]; strain 8156, cineol […]): 8 µg/mL
amoxicillin MIC ([5]; strain ATCC 25922, Amox, cineol 0): 8 µg/mL
amoxicillin MIC ([5]; strain ATCC 25922, cineol 10 mg/L): 0.5^+
amoxicillin MIC ([5]; strain ATCC 25922, cineol 20 mg/L): 8 µg/mL
amoxicillin MIC ([5]; strain ATCC 25922, cineol 37.5 mg/L): 8 µg/mL
amoxicillin MIC ([5]; strain ATCC 25922, cineol 75 mg/L): 8 µg/mL
amoxicillin MIC ([5]; strain ATCC 25922, cineol 150 mg/L): 8 µg/mL
amoxicillin MIC ([5]; strain ATCC 25922, cineol 300 mg/L): 8 µg/mL
amoxicillin MIC ([5]; strain ATCC 25922, cineol 600 mg/L): 8 µg/mL
amoxicillin MIC ([5]; strain ATCC 25922, cineol 2,500 mg/L): 16 µg/mL
amoxicillin MIC ([5]; strain ATCC 25922, cineol 5,000 mg/L): 8 µg/mL
amoxicillin MIC ([5]; strain ATCC 25922, cineol 25,000 mg/L): 4^+
amoxicillin MIC ([5]; strain ATCC 25922, cineol 50,000 mg/L): 0.06^+
amoxicillin MIC ([5]; strain ATCC 25922, cineol […]): 8 µg/mL
Time spent beyond the MIC [6]: <5 h
Compound: CC1(C)S[C@@H]2[C@H](NC(=O)[C@H](N)c3ccc(O)cc3)C(=O)N2[C@H]1C(=O)O [Amox, amoxicillin]
